Assay results: PubChem BioAssay AID1963846 (Molecular Pharmacology Branch, DTP, NCI, 2024)
Where “and” joins values, the source holds several entries; their conditions need not be identical. Identical values can stand only once.

Test system: 454973-116-R2-J3-PDC complex spheroid viability
Assay: Anticancer human tumor 454973-116-R2-J3-PDC patient-derived pancreatic carcinoma cell line growth inhibition [POLQ]
Conditions: for viability, T/C: stronger effect = lower value
Procedure: Multicellular complex tumor spheroid response to Polymerase (POL) inhibitors (novobiocin, ART-558, RP6685) in combination with a variety of drugs and investigational agents in selected tumor cell lines
The POL inhibitors (novobiocin, ART-558, and RP6685) were evaluated both individually and in combination with standard of care and investigational anticancer small molecules within a complex spheroid model of solid tumors. . Complex spheroids include a stromal component modeled by human endothelial cells (HUVEC) and fibroblasts modeled by human mesenchymal stem cells (MSCs). The concentration ranges selected for each drug and investigational agent were based upon clinically achievable concentrations if the clinical Cmax of the agent was known.
Compounds. The drugs and investigational agents: novobiocin (NSC847541), ART-558 (NSC835418), RP-6685 (NSC848927), peposertib (NSC802822), ceralasertib (NSC780249), elimusertib (NSC800525), camonsertib (NSC841442), AZD-1390 (NSC803789), olaparib (NSC753686), talazoparib (NSC767125), rucaparib (NSC756644), sotorasib (NSC818433), MRTX-1133 (NSC836407), SN-38 (NSC673596), topotecan (NSC609699), epotoside (NSC141540), doxorubicin (NSC123127), gemcitabine (NSC613327), 5-fluorouracil (NSC19893), paclitaxel (NSC125973), vemurafenib (NSC761431), MSA-2 (NSC828583), SN-011 (NSC837082), adavosertib (NSC754352), prexasertib (NSC758257), carboplatin (NSC241240) and oxaliplatin (NSC266046), were obtained from the National Cancer Institute (NCI) Developmental Therapeutics Program Chemical Repository (21). The FDA-approved anticancer drug set is available from the Developmental Therapeutics Program at https://dtp.cancer.gov/organization/dscb/obtaining/. […] The stock solutions were prepared in dimethyl sulfoxide (DMSO, Sigma-Aldrich, St. Louis, MO, cat. D2650), except for the platinum compounds which were prepared in saline (Quality Biological, Gaithersburg, MD, cat. 114-055-101), at 800-fold the tested concentration and stored at -70 degrees C prior to their use. All drugs and investigational agents were tested over a range starting from a high concentration at or near the clinical Cmax and decreasing in half-log increments. If the clinical Cmax for an agent had not been determined, the highest concentration tested was 10 microM, except for SN-38, which was tested at a high concentration of 1 microM.
Cell Culture. All cells were maintained in an incubator at 37 degrees C and 5% CO2 with 95% humidity. The PDC lines were cultured according to standard operating procedures established by the NCI PDMR (https://pdmr.cancer.gov). Table 3 of the manuscript, lists the cell lines along with the number of the three cell types plated to form the mct-spheroids and media for tumor cell growth. After thawing, all PDC lines, except 997537-175-T-J1-PDC and 415267-285-R-J2-PDC, were cultured in Matrigel-coated flasks prepared with a working solution of 1X Ham's F-12 nutrient mix, without supplementation (Thermo Fisher Scientific, cat. 11765054), 100 U/mL penicillin-streptomycin (Thermo Fisher Scientific, cat. 15140122), and 2.5% Matrigel (Corning Inc., Corning, NY, cat. 354248) for the first three passages. The two PDC lines 997537-175-T-J1-PDC and 415267-285-R-J2-PDC were cultured on uncoated flasks. The 857933-349-R-J2-PDC line was cultured in 6C/Colon 1B media containing advanced DMEM/F-12 (Thermo Fisher Scientific, cat. 12634028), 10 mM HEPES (Thermo Fisher Scientific, cat. 15630080), 1X GlutaMAX supplement (Thermo Fisher Scientific, cat. 35050061), 0.1 mg/mL primocin (InvivoGen, San Diego, CA, cat. ant-pm-2), 10% defined fetal bovine serum, heat inactivated (HyClone Laboratories Inc., Logan, UT, cat. SH30070.03HI), 50% L-WRN conditioned media (ATCC, cat. CRL-3276), 1.25 mM N-Acetyl-L-cysteine (Sigma-Aldrich, cat. A9165), 10 mM nicotinamide (Sigma-Aldrich, cat. N0636), 1X B-27 supplement (Thermo Fisher Scientific, cat. 17504044), 1X N-2 supplement (Thermo Fisher Scientific, cat. […]

[1] = compound alone, run of 10/31/2023
[2] = compound alone, run of 11/06/2023
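Note: spheroids exposed to drugs for seven days before measurement.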
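Throughout, for viability, T/C: percent viability relative to DMSO vehicle control wells taken as 100%.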

| SMILES | viability, T/C (compound 0.0316 µM) | viability, T/C (compound 0.1 µM) | viability, T/C (compound 0.316 µM) | viability, T/C (compound 1 µM) | viability, T/C (compound 3.16 µM) | viability, T/C (compound 10 µM) | IC50 [1] [µM] | IC50 (curve of compound) | viability, T/C (compound 0.00316 µM) | viability, T/C (compound 0.01 µM) | IC50 [2] [µM] | viability, T/C (compound 0.000316 µM) | viability, T/C (compound 0.001 µM) |
| --- | --- | --- | --- | --- | --- | --- | --- | --- | --- | --- | --- | --- | --- |
| COC1C(OC(N)=O)C(O)C(Oc2ccc3c(O)c(NC(=O)c4ccc(O)c(CC=C(C)C)c4)c(=O)oc3c2C)OC1(C)C (configuration not stated) | 106% [middle of 13 runs] | 111% [middle of 13 runs] | 105% [middle of 13 runs] | 102% [middle of 13 runs] | 102% [middle of 13 runs] | 109% [middle of 13 runs] | > 10 |  |  |  |  |  |  |
| COc1cc(C2c3cc4c(cc3C(OC3OC5COC(C)OC5C(O)C3O)C3COC(=O)C23)OCO4)cc(OC)c1O (configuration not stated) | 102% and 100% and 103% | 94.6% and 100% and 97.6% | 87.3% and 85.4% and 94.8% | 64.4% and 47.4% and 68.4% | 27% and 15.3% and 23.4% | 11% and 6.79% and 10.2% |  | 1.53 µM and 0.921 µM and 1.6 µM |  |  |  |  |  |
| COc1cc2cc(C(=O)CCC(=O)O)sc2cc1OC | 101% and 105% (2×) | 101% (2×) and 99.3% | 100% and 105% and 108% | 96.9% and 103% and 106% | 94.2% and 105% and 114% | 96.2% and 95.3% and 93.4% |  | > 10 µM |  |  |  |  |  |
| COc1ccc([C@@H](O)c2cc(-c3ncnc4cc(N5CCOCC5)ccc34)c(F)cc2Cl)nn1 | 110% and 102% and 101% | 102% and 96.8% and 98.7% | 104% and 102% and 94.2% | 92.9% and 83.8% and 93% | 76% and 75.2% and 80.2% | 52.7% and 56.2% and 53.7% |  | > 10 µM |  |  |  |  |  |
| COc1cccc(OCCCN)c1-c1cc(Nc2cnc(C#N)cn2)n[nH]1 | 7.56% and 10.8% and 14.6% | 5.87% and 6.45% and 6.4% | 4.59% and 5.13% and 4.47% | 4.4% and 5.18% and 4.15% |  |  |  | 0.0145 µM and 0.0157 µM and 0.0158 µM | 99.7% (2×) and 101% | 70.4% and 75.3% and 73% |  |  |  |
| COc1cccc2c1C(=O)c1c(O)c3c(c(O)c1C2=O)CC(O)(C(=O)CO)CC3OC1CC(N)C(O)C(C)O1 (configuration not stated) | 73.1% and 56.1% and 76.5% | 29.5% and 17.3% and 24.4% | 22.2% and 15.9% and 20.4% | 9.63% and 3.16% and 7.36% | 0.59% and 0.89% and 0.65% | 0.49% and 0.17% and 1.33% |  | 0.0626 µM and 0.0375 µM and 0.0601 µM |  |  |  |  |  |
| Cc1cccc(N(C)C(=O)C2C(O)CCN2c2nc(C)cc(C(F)(F)F)c2C#N)c1 (configuration not stated) | 106% [middle of 13 runs] | 108% [middle of 13 runs] | 107% [middle of 13 runs] | 100% [middle of 13 runs] | 104% [middle of 13 runs] | 107% [middle of 13 runs] | > 10 |  |  |  | > 10 |  |  |
| Cn1ncnc1[C@H]1c2n[nH]c(=O)c3cc(F)cc(c23)N[C@@H]1c1ccc(F)cc1 | 111% and 86.4% and 102% | 89.9% and 81.5% and 91.9% |  |  |  |  |  | > 0.1 µM | 92.2% and 107% and 93.9% | 95.1% and 86.6% and 101% |  | 112% and 102% (2×) | 91.7% and 103% and 104% |
| Nc1ccc(C#CCN(C(=O)Cc2ncc(C(F)(F)F)cc2C(F)(F)F)c2ccc(F)cc2)nn1 | 109% [middle of 13 runs] | 106% [middle of 13 runs] | 107% [middle of 13 runs] | 104% [middle of 13 runs] | 105% [middle of 13 runs] | 112% [middle of 13 runs] |  |  |  |  | > 10 |  |  |
| Nc1ccn(C2OC(CO)C(O)C2(F)F)c(=O)n1 (configuration not stated) | 12.9% and 5.69% and 16.6% | 14.2% and 8.25% and 9.25% | 11.2% and 8.63% and 12.6% | 14.3% and 7.78% and 11.7% | 12% and 9.22% and 12.5% | 11.3% and 5.91% and 10.8% |  | < 0.0316 µM |  |  |  |  |  |
| O=C(Nc1ccc(O)c(NS(=O)(=O)c2ccc(F)cc2)c1)c1ccc(-c2ccccc2)cc1 | 103% and 108% and 98.8% | 104% and 96.5% and 103% | 100% and 110% and 106% | 94% and 101% and 106% | 96.4% and 116% and 115% | 87.7% and 89.7% and 98% |  | > 10 µM |  |  |  |  |  |
| O=C(c1cc(Cc2n[nH]c(=O)c3ccccc23)ccc1F)N1CCN(C(=O)C2CC2)CC1 | 105% and 99.8% and 97.1% | 96.5% and 99% and 104% | 101% | 91.2% and 104% and 90.5% | 104% and 102% and 95.3% | 60.6% and 62.5% and 54.9% |  | > 10 µM |  |  |  |  |  |
| O=c1[nH]cc(F)c(=O)[nH]1 | 107% and 104% and 112% | 103% and 102% and 99.7% | 101% and 92.2% and 104% | 99.9% and 71.4% and 92.9% | 50.8% and 29.6% and 53.3% | 32.6% and 40.2% and 36.8% |  | 3.34 µM and 1.96 µM and 4.01 µM |  |  |  |  |  |
